Laboratory results taken from PubChem BioAssay (NCI).
Values joined by “and” are separate entries in the source; they are usually repeats but may differ in a detail not shown here. Identical values can stand only once.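 Assay format: 96-well plates, 48-hour exposure. The concentration for 50% growth inhibition is given as GI50. TGI is the concentration that stops growth completely.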 Numbered stars: 1 amine (or outer) side, 2 acyl side, 3 side chain; on linkers, the order of the positions; unused ones are H or OH. Bridge positions count the residues as written; N and C are the ends. Square brackets hold non-standard residues; d marks the D form. Peptide text beside a SMILES is read from it. I, II: the chains in the order shown. Actinocin(1to9) = Cc1c2oc3c(C)ccc(C(=O)[*:2])c3nc-2c(C(=O)[*:1])c(N)c1=O; NMeV = CN[CH](C(=O)O)C(C)C; Sar = CNCC(=O)O

Tests used:
Assay in all cases: DTP human tumour cell line panel, 48 h
SNB-75 CNS = tested on: SNB-75 CNS
RPMI-8226 leukemia = tested on: RPMI-8226 leukemia
EKVX NSCLC = tested on: EKVX NSCLC
MALME-3M melanoma = tested on: MALME-3M melanoma
MOLT-4 leukemia = tested on: MOLT-4 leukemia
786-0 renal = tested on: 786-0 renal
ACHN renal = tested on: ACHN renal
OVCAR-4 ovarian = tested on: OVCAR-4 ovarian
SK-MEL-2 melanoma = tested on: SK-MEL-2 melanoma
MDA-MB-435 = tested on: MDA-MB-435

SMILES | TGI (SNB-75 CNS) [µM] | TGI (RPMI-8226 leukemia) [µM] | TGI (EKVX NSCLC) | TGI (MALME-3M melanoma) [µM] | TGI (MOLT-4 leukemia) | TGI (786-0 renal) | TGI (ACHN renal) | TGI (OVCAR-4 ovarian) [µM] | TGI (SK-MEL-2 melanoma) [µM] | TGI (MDA-MB-435) [µM] | GI50 (SNB-75 CNS) | GI50 (RPMI-8226 leukemia) [µM] | GI50 (EKVX NSCLC) [µM] | GI50 (MALME-3M melanoma) [µM] | GI50 (MOLT-4 leukemia) [nM] | GI50 (ACHN renal) [µM] | GI50 (MDA-MB-435) [nM] | GI50 (OVCAR-4 ovarian) [µM] | GI50 (SK-MEL-2 melanoma) [µM]
COC1=CC(=O)C2C(C1=O)[C@@H]1c3ccccc3OC[C@H]21 (stereo not given in full) | > 100 | > 100 | > 100 µM | > 100 | > 100 µM | > 100 µM | > 100 µM | > 100 | > 100 | – | – | – | – | – | – | – | – | – | –
CCC(C)C1NC(=O)C(NC(=O)c2c3nc4c(C(=O)NC5C(=O)NC(C(C)C)C(=O)N6CCCC6C(=O)N(C)CC(=O)N(C)C(C(C)C)C(=O)OC5C)ccc(C)c4oc-3c(C)c(=O)c2N)C(C)OC(=O)C(C(C)C)N(C)C(=O)CN(C)C(=O)C2CCCN2C1=O (stereo not given) (I: TIP[Sar][NMeV] / II: TVP[Sar][NMeV]; ester I:1-I:C, II:1-II:C; linker I:N-II:N via Actinocin(1to9); configuration not given here) | 0.579 | 0.0323 | 0.179 µM and 0.0919 µM | 0.028 | 0.0667 µM and 0.0163 µM | 0.141 µM and 0.669 µM | 0.0377 µM and 0.0261 µM | 0.739 | 0.111 | 0.0302 | – | – | – | – | – | – | – | – | –
N#Cc1c(Nc2ccccc2)[n+]([O-])c2ccc(Cl)cc2[n+]1[O-] | > 96.6 | > 24.7 | > 32.9 µM | 26.9 | > 100 µM | 34 µM | 68.5 µM | 4.17 | > 72 | > 100 | – | – | – | – | – | – | – | – | –
CCCC(=O)Oc1cc(OC(=O)CCC)c2c(C)cc(=O)oc2c1 | > 100 | > 100 | > 100 µM | > 100 | > 100 µM | > 100 µM | > 100 µM | > 100 | > 100 | > 100 | – | – | – | – | – | – | – | – | –
CCN1CCC(O)(/C=C/c2ccc(Cl)cc2)C(C(=O)/C=C/c2ccc(Cl)cc2)C1 (stereo not given) | 74.5 | – | > 100 µM | > 100 | > 100 µM | 43.3 µM | > 100 µM | 96 | > 100 | – | – | – | – | – | – | – | – | – | –
O=c1cc(-c2cccc(Br)c2)[nH]c2cc3c(cc12)OCO3 | 10.5 | > 100 | – | 17.2 | > 100 µM | 12.9 µM | 24.4 µM | > 100 | 6.67 | 3.02 | – | – | – | – | – | – | – | – | –
C/C=C1/C(=O)O[C@]23C=C[C@@H]4C(C(=O)OC)=CO[C@H](O[C@@H]12)[C@@H]43 | 7.38 | 3.4 | 3.64 µM | 5.61 | 3.83 µM | – | – | 2.98 | 3.76 | – | – | – | – | – | – | – | – | – | –
OCC1(CNc2cc(Cl)ncn2)CCC1 | > 100 | > 100 | > 100 µM | > 100 | > 100 µM | > 100 µM | > 100 µM | > 100 | > 100 | > 100 | – | – | – | – | – | – | – | – | –
CC(=O)c1cccc(NC(=O)/C(=N\NC(=S)NN)C2C(=O)Nc3ccccc3S2=O)c1 (stereo not given) | > 100 | > 100 | > 100 µM | > 100 | > 100 µM | > 100 µM | > 100 µM | – | > 100 | > 100 | – | – | – | – | – | – | – | – | –
COc1ccc(-c2c(C#N)cnc(N)c2-c2nc3cc(C)c(C)cc3[nH]2)cc1 | 8.19 | > 100 | > 100 µM | 48.3 | > 100 µM | – | > 100 µM | > 100 | 98 | 5.39 | 2.36 µM | 32.5 | 15.8 | 6 | > 100000 | 39.8 | 1950 | 22.5 | 10.8
O=C(CSCC(=O)N/N=C/c1ccncc1)N/N=C/c1ccncc1 | > 100 | > 100 | > 100 µM | > 100 | > 100 µM | > 100 µM | > 100 µM | > 100 | > 100 | > 100 | – | – | – | – | – | – | – | – | –
O=C1Cc2c([nH]c3cc(Br)ccc23)-c2ccccc2N1 | 44.9 | – | – | 48.1 | 40.9 µM | > 100 µM | 64.7 µM | 38.2 | – | > 100 | – | – | – | – | – | – | – | – | –
CCOC(=O)C1C(=O)c2cccc(OC)c2C2COC(=O)N12 (stereo not given) | > 100 | > 100 | > 100 µM | > 100 | > 100 µM | > 100 µM | > 100 µM | > 100 | > 100 | – | – | – | – | – | – | – | – | – | –
COc1ccc(/C=C/C(=O)/C=C(/C=C/c2ccc(OC)c(OC)c2OC)OB(F)F)c(OC)c1OC | > 100 | 2.77 | > 100 µM | 62.4 | 4.74 µM | – | – | > 100 | 8.09 | > 100 | 4.84 µM | 0.466 | 2.96 | 3.02 | 425 | – | 2150 | 5.09 | 2.36
O=C(NC(Cc1ccccc1)P(=O)(O)c1ccccc1)OCc1ccccc1 (stereo not given) | > 100 | > 100 | > 100 µM | > 100 | > 100 µM | > 100 µM | > 100 µM | > 100 | – | > 100 | – | – | – | – | – | – | – | – | –
Nc1nc2c(ncn2CC(CO)CC(c2ccccc2)P(=O)(O)O)c(=O)[nH]1 (stereo not given) | > 100 | > 100 | > 100 µM | > 100 | > 100 µM | > 100 µM | > 100 µM | – | > 100 | – | 13.2 µM and > 100 µM | – | – | – | – | – | – | – | –
C=C(C)COC(=O)COCC(=O)OCC(=C)C | > 100 | > 100 | > 100 µM | > 100 | > 100 µM | > 100 µM | > 100 µM | > 100 | – | > 100 | – | – | – | – | – | – | – | – | –
CC1CC/C(=C\c2ccc(F)cc2)C2=C1C(c1ccc(F)cc1)n1c(s/c(=C\c3ccc(Cl)cc3)c1=O)=N2 (stereo not given) | – | > 100 | > 100 µM | – | > 100 µM | > 100 µM | > 100 µM | > 100 | > 100 | > 100 | – | – | – | – | – | – | – | – | –
COc1cc2c(cc1O)N=C[C@@H]1CCC(O)N1C2=O (mixture of isomers) | 3.26 | 2.39 | 5.99 µM | 1.42 | 2.69 µM | – | – | 18 | 0.748 | – | – | – | – | – | – | – | – | – | –
Cc1nc2c(s/c(=N\N)n2-c2ccccc2)c(=O)n1C | > 100 | > 100 | > 100 µM | – | > 100 µM | > 100 µM | > 100 µM | > 100 | > 100 | – | – | – | – | – | – | – | – | – | –
CCOC(=O)C(C(=O)OCC)C(NC(=O)Nc1cc(C(F)(F)F)ccc1OC)(C(F)(F)F)C(F)(F)F | – | 56.8 | > 100 µM | 51.2 | 68.6 µM | 55.8 µM | > 100 µM | 98.6 | – | 43.8 | – | – | – | – | – | – | – | – | –
